Experiments:
[1] = target: T1, Voltage-gated inwardly rectifying potassium channel KCNH2 (Homo sapiens, UniProt Q12809); assay: Binding affinity to Kv11.1 channel (unknown origin)
[2] = target: Kv11.1 (KCNH2, hERG) potassium channel (Homo sapiens, UniProt Q12809); assay: Allosteric modulation of [3H]-dofetilide binding at Kv11.1 channel (unknown origin) expressed in HEK293 cells at 10 uM after 6 mins by scintillation spectrometer analysis relative to control; assay type: cell-based; conditions: HEK293 cells expressing Kv11.1 channel, probe [3H]-dofetilide, read-out: Activity
Sequence of Kv11.1 (KCNH2, hERG) potassium channel (Q12809 whole entry): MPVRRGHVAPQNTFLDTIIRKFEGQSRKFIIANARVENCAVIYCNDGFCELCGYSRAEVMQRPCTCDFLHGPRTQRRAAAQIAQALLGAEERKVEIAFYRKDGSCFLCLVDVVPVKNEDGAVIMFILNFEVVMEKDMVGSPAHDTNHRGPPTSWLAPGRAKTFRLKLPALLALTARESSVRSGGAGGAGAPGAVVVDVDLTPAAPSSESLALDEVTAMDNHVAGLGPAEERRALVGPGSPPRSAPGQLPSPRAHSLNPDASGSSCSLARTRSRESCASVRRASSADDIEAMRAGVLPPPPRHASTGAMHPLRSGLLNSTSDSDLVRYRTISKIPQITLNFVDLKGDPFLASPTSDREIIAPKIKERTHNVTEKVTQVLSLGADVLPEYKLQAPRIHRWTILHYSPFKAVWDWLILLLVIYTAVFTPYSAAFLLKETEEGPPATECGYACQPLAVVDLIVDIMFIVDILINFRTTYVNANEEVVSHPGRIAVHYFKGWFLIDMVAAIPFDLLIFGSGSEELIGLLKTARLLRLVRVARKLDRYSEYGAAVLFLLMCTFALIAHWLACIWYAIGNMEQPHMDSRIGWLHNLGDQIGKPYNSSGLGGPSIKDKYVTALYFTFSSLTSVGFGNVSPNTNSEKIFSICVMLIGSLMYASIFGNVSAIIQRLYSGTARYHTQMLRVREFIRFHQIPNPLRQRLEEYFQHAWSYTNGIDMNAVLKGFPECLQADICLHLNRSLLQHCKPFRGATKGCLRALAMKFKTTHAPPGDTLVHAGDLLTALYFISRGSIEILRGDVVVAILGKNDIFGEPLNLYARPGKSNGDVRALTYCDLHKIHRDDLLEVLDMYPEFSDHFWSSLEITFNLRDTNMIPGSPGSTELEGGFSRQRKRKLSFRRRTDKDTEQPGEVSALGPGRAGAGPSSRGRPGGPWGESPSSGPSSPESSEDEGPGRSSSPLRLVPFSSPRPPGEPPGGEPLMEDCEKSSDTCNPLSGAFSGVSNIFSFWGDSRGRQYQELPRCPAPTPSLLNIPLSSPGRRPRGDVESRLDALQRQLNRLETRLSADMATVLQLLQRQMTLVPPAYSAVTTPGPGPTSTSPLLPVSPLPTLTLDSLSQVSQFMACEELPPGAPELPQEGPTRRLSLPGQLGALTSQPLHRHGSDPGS

[3] = target: T1, Voltage-gated inwardly rectifying potassium channel KCNH2; assay: Induction of dissociation of [3H]-dofetilide from Kv11.1 channel (unknown origin) assessed as dissociation rate expressed in HEK293 cells at 50 uM after 1 hr relative to control; assay type: cell-based; conditions: hek293, 1 h
[4] = target: T1, Voltage-gated inwardly rectifying potassium channel KCNH2; assay: Allosteric modulation of Kv11.1 channel (unknown origin) expressed in HEK293 cells assessed as shift of inhibition constant for dofetilide-induced displacement of [3H]-dofetilide binding at 10 uM after 1 hr relative to control; assay type: cell-based; conditions: hek293, 1 h
[5] = target: T1, Voltage-gated inwardly rectifying potassium channel KCNH2; assay: Allosteric modulation of Kv11.1 channel (unknown origin) expressed in HEK293 cells assessed as shift of inhibition constant for astemizole-induced displacement of [3H]-dofetilide binding at 10 uM after 1 hr relative to control; assay type: cell-based; conditions: hek293, 1 h
[6] = target: T1, Voltage-gated inwardly rectifying potassium channel KCNH2; assay: Induction of dissociation of [3H]-dofetilide from Kv11.1 channel (unknown origin) assessed as dissociation rate expressed in HEK293 cells after 1 hr; assay type: cell-based

T1 sequence (Q12809 whole entry): as above

Row | SMILES | activity at 0.1 h, 10 µM [2] | further results
1 | O=C(COc1ccc2ccccc2c1Br)Nc1cccnc1 | 66% | Ki [1]: 0.0048 µM
2 | O=C(COc1ccc(C(=O)c2ccccc2)cc1)Nc1cccnc1 | 78% | 
3 | O=C(COc1ccc(C(=O)c2cccc(F)c2Br)cc1)Nc1cccnc1 | 85% | 
4 | O=C(COc1ccc(C(=O)c2ccc(Cl)cc2)cc1)Nc1cccnc1 | 104% | 
5 | Cc1ccc(NC(=O)COc2ccc(C(=O)c3ccccc3Br)cc2)cn1 | 105% | 
6 | COc1ccncc1NC(=O)COc1ccc(C(=O)c2ccccc2Br)cc1 | 105% | 
7 | O=C(COc1ccc(C(=O)c2ccccc2Br)cc1)Nc1cncnc1 | 87% | 
8 | Cc1ccc(C(=O)c2ccc(OCC(=O)Nc3cccnc3)cc2)cc1 | 97% | 
9 | O=C(COc1ccc(C(=O)c2cccc(Br)c2)cc1)Nc1cccnc1 | 57% | fold change (FC) [3]: 1.4; fold change (FC) [4]: 1.4; fold change (FC) [5]: 1.4
10 | O=C(COc1ccc(C(=O)c2ccccc2)c(Br)c1)Nc1cccnc1 | 96% | 
11 | O=C(COc1ccc(C(=O)c2cccc(Cl)c2)cc1)Nc1cccnc1 | 43% | fold change (FC) [3]: 1.7; fold change (FC) [4]: 3.3; fold change (FC) [5]: 2.8
12 | O=C(COc1ccc(C(=O)c2ccccc2Br)cc1)Nc1ccc(Cl)nn1 | 92% | 
13 | Cc1ccncc1NC(=O)COc1ccc(C(=O)c2ccccc2Br)cc1 | 108% | 
14 | O=C(COc1ccc(C(=O)c2cccc(F)c2)cc1)Nc1cccnc1 | 47% | fold change (FC) [3]: 1.6; fold change (FC) [4]: 1.9; fold change (FC) [5]: 1.9
15 | O=C(COc1ccc(C(=O)c2cccc(I)c2)cc1)Nc1cccnc1 | 62% | 
16 | O=C(COc1ccc(C(=O)c2ccccc2F)cc1)Nc1cccnc1 | 85% | 
17 | O=C(COc1ccc(C(=O)c2ccccc2Br)cc1)Nc1cccnc1 | 44% | fold change (FC) [3]: 3; EC50 [6]: 12 µM; fold change (FC) [4]: 2.5; fold change (FC) [5]: 4.1
18 | COc1ccc(NC(=O)COc2ccc(C(=O)c3ccccc3Br)cc2)cn1 | 124% | 
19 | O=C(COc1ccc(C(=O)c2ccc(F)cc2)cc1)Nc1cccnc1 | 65% | 
20 | COc1cncc(NC(=O)COc2ccc(C(=O)c3ccccc3Br)cc2)c1 | 107% | 
21 | O=C(COc1ccc(C(=O)c2ccccc2Br)cc1)Nc1ccc(Cl)nc1 | 95% | 
22 | O=C(COc1ccc(C(=O)c2ccccc2Cl)cc1)Nc1cccnc1 | 71% | 
23 | Cc1cncc(NC(=O)COc2ccc(C(=O)c3ccccc3Br)cc2)c1 | 121% | 
24 | O=C(COc1ccc2c(c1)-c1ccccc1C2=O)Nc1cccnc1 | 79% | 
25 | O=C(COc1ccc(C(=O)c2ccccc2Br)cc1)Nc1cnc2ccccc2c1 | 87% | 
26 | O=C(COc1ccc(C(=O)c2cc(F)ccc2Br)cc1)Nc1cccnc1 | 38% | fold change (FC) [3]: 4.1; EC50 [6]: 4.6 µM; fold change (FC) [4]: 4.6; fold change (FC) [5]: 6.3
27 | O=C(COc1ccc(C(=O)c2ccccc2I)cc1)Nc1cccnc1 | 72% | 
28 | O=C(COc1ccc(C(=O)c2ccccc2Br)cc1)Nc1cnccn1 | 92% | 
29 | O=C(COc1ccc(C(=O)c2ccccc2)cc1Br)Nc1cccnc1 | 96% | 

Reference: ChEMBL document CHEMBL3739265, “Synthesis and biological evaluation of negative allosteric modulators of the Kv11.1(hERG) channel” (Eur J Med Chem, 2015)
